# Experimental data taken from patent US9073880B2, “2-(2-phenylethenyl) 1,3-benzodiazepine derivatives useful for the treatment of cancer” (Yissum Research Development Company of the Hebrew …, priority 2010, dated 2015).
# Test system: human colon carcinoma HCT15 cells
# Experiment: Cell proliferation, HCT15 (Example 4)
# Format: cell-based
# Conditions: HCT-15, HCT15, colon cancer, compound in 2-hydroxypropyl-β-cyclodextrin
# Description: Human ovary cancer A2780 cells lines were seeded at a density of 5000 cells/well, human melanoma A375 cells were plated at a density of 2,500 cells/well, human colon carcinoma HCT15 cells were plated at a density of 3,000 cells/well, human prostate carcinoma PC3 cells were plated at a density of 1,500 cells/well, human breast carcinoma MCF7 cells were plated at a density of 5,000 cells/well, human breast carcinoma MDA MB 468 cells were plated at a density of 6,000 cells/well, human myeloma U266, RPMI8226 and CAG cells were plated at a density of 10,000 cells/well. All cells were plated in 96-well plates in 90 μl growth medium containing 10% FCS, 100 units/ml penicillin and 100 μg/ml streptomycin. Compound 3 was added a day later in […] of 1% DMSO in DDW to obtain final concentrations of 0, 0.1, 0.3, 1, 3, and 10 μM. The final concentration of DMSO (0.1% DMSO) was kept constant in all samples. […] The optical density values were read at 630 nm in ELISA plate reader. Non-adhered cells were exposed to WST-1 reagent for 5 hours following 72 hours treatment with the inhibitors, and optical density values were read at 630 nm in ELISA plate reader. The data was analyzed in Microsoft Excel, using the vehicle control as 100% proliferation. […]
row,SMILES,IC50 [nM]
1,O=c1c(O)cc2cnc(/C=C/c3cc(O)c(O)c(Br)c3)sc-2c1O [Compound 3],700
2,O=c1c(O)cc2cnc(/C=C/c3ccc(O)c(O)c3Br)sc-2c1O [Compound 5],900
